In ChEMBL document CHEMBL1201862, “PubChem BioAssay data set” (2004):
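Cells were grown in 96-well plates and exposed to each compound for 48 hours at five concentrations; endpoints were interpolated linearly between bracketing concentrations, or set to the highest concentration if not reached. GI50 = concentration required for 50% inhibition of growth.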 Activity calls are given as the source filed them. No stated cut-off is given here; in the data, active = GI50 up to about 1.1 µM and inactive = higher.

Tests used:
Assay in all cases: growth of human tumour cells (NCI), 48 h
EKVX = system: EKVX
U-251 = system: U-251
A498 = system: A498
MDA-MB-231 = system: MDA-MB-231
MCF7 = system: MCF7
MOLT-4 = system: MOLT-4
M14 = system: M14
SF-539 = system: SF-539
MDA-MB-435 = system: MDA-MB-435
UACC-257 = system: UACC-257
CCRF-CEM = system: CCRF-CEM
SF-268 = system: SF-268
UACC-62 = system: UACC-62
HCC 2998 = system: HCC 2998
DU-145 = system: DU-145
T47D = system: T47D
HCT-116 = system: HCT-116
NCI-H522 = system: NCI-H522
OVCAR-5 = system: OVCAR-5
SN12C = system: SN12C

Compound | GI50 (EKVX) | GI50 (U-251) | GI50 (A498) | GI50 (MDA-MB-231) | GI50 (MCF7) | GI50 (MOLT-4) | GI50 (M14) | GI50 (SF-539) | GI50 (MDA-MB-435) | GI50 (UACC-257) | GI50 (CCRF-CEM) | GI50 (SF-268) | GI50 (UACC-62) | GI50 (HCC 2998) | GI50 (DU-145) | GI50 (T47D) | GI50 (HCT-116) | GI50 (NCI-H522) | GI50 (OVCAR-5) | GI50 (SN12C)
O=C(c1cc2ccccc2cc1O)N1CCCCC1 | 20.3 µM (inactive) | 52.4 µM (inactive) | 15.2 µM (inactive) | 68.2 µM (inactive) | 26.4 µM (inactive) | 15.3 µM (inactive) | 18.1 µM (inactive) | 37.3 µM (inactive) | 33.3 µM (inactive) | 53 µM (inactive) | 14.5 µM (inactive) | 36.1 µM (inactive) | 31.4 µM (inactive) | 21.2 µM (inactive) | 64.1 µM (inactive) | 37.6 µM (inactive) | 39.6 µM (inactive) |  |  | 
Cc1cn(C2CC(O)C(CO[Si](C)(C)C(C)(C)C)OC2OC(C)C)c(=O)[nH]c1=O (stereo unspecified) | 42.5 µM (inactive) | 39.3 µM (inactive) | > 10 µM (inactive) | 35.2 µM (inactive) | 22.4 µM (inactive) |  | 34.9 µM (inactive) | 21.9 µM (inactive) | 60 µM (inactive) | 34.6 µM (inactive) | 36.1 µM (inactive) | 51.3 µM (inactive) | > 100 µM (inactive) | 24.5 µM (inactive) | > 100 µM (inactive) | 72.3 µM (inactive) | 16.5 µM (inactive) | 30.2 µM (inactive) | > 100 µM (inactive) | 39.6 µM (inactive)
Cc1nc(-c2ccc(Cl)cc2)cn2c1nc1ccccc12 | > 100 µM (inactive) | > 100 µM (inactive) | > 100 µM (inactive) | > 100 µM (inactive) | 0.647 µM (active) | 26.3 µM (inactive) | > 72.3 µM (inactive) | > 61.4 µM (inactive) | > 100 µM (inactive) | > 100 µM (inactive) | 23.5 µM (inactive) | > 100 µM (inactive) | > 100 µM (inactive) | > 100 µM (inactive) | > 100 µM (inactive) | 0.955 µM (active) | > 100 µM (inactive) | > 100 µM (inactive) | > 31 µM (inactive) | > 100 µM (inactive)
COc1cc(C2c3cc4c(cc3OC(N3CCOCC3)C2C)OCO4)cc(OC)c1O (stereo unspecified) | 36.2 µM (inactive) | 7.52 µM (inactive) | 15.1 µM (inactive) | 10.1 µM (inactive) | 5.35 µM (inactive) | 3.18 µM (inactive) | 7.29 µM (inactive) | 5.66 µM (inactive) | 2.1 µM (inactive) | 17.8 µM (inactive) | 3.14 µM (inactive) | 17.7 µM (inactive) | 3.73 µM (inactive) | 10.5 µM (inactive) | 29.7 µM (inactive) | 9.04 µM (inactive) | 4.13 µM (inactive) | 2.8 µM (inactive) | 46.6 µM (inactive) | 13.7 µM (inactive)
COc1ccc(CCNC(=O)Cc2ccccc2CCO)cc1OC | > 100 µM (inactive) | > 100 µM (inactive) | > 100 µM (inactive) | 38.8 µM (inactive) | > 100 µM (inactive) | > 100 µM (inactive) | > 100 µM (inactive) | > 100 µM (inactive) | > 100 µM (inactive) | > 100 µM (inactive) | > 100 µM (inactive) | > 100 µM (inactive) | > 100 µM (inactive) | > 100 µM (inactive) | > 100 µM (inactive) | > 100 µM (inactive) | > 100 µM (inactive) | > 100 µM (inactive) | > 100 µM (inactive) | > 100 µM (inactive)
Cc1cc2c(cc1C)OC(=O)CC2 | > 100 µM (inactive) | > 100 µM (inactive) | > 100 µM (inactive) | > 100 µM (inactive) | > 100 µM (inactive) | > 100 µM (inactive) | > 100 µM (inactive) | > 100 µM (inactive) | > 100 µM (inactive) | > 100 µM (inactive) | > 100 µM (inactive) | > 100 µM (inactive) | > 100 µM (inactive) | > 100 µM (inactive) | > 100 µM (inactive) | > 100 µM (inactive) | > 100 µM (inactive) | > 100 µM (inactive) | > 100 µM (inactive) | > 100 µM (inactive)
CC(C)(C)c1cc(C(=O)/C=C/c2ccc3c(c2)CCO3)cc(C(C)(C)C)c1O | 0.729 µM (active) | 0.94 µM (active) | 1.12 µM (active) | 2.28 µM (inactive) | 1.23 µM (inactive) | 2.42 µM (inactive) | 1.17 µM (inactive) | 0.619 µM (active) | 0.327 µM (active) | 0.792 µM (active) | 1.07 µM (active) | 2.58 µM (inactive) | 1.16 µM (inactive) | 1.89 µM (inactive) | 1.39 µM (inactive) | 4.86 µM (inactive) | 1.2 µM (inactive) | 0.323 µM (active) | 2.39 µM (inactive) | 2.99 µM (inactive)
